13 compounds from patent US12338237B2, “Derivatives having 1,2,3,4-tetrahydronaphthalene moiety or pharmaceutically acceptable salt thereof and pharmaceutical compositions comprising the same” (YUHAN CORPORATION, priority 2019, dated 2025) can be followed below.

Test [1] concerns the target glucosylceramide synthase (GCS) (Homo sapiens (Human), UniProt Q16739). As to the kind of experiment: Evaluation of inhibitory activities against GCS (enzyme reaction with A549 cell lysate, NBD C6-ceramide, HPLC fluorescence). The format is biochemical. The note with it: GCS activity in A549 cell lysate, 37° C. for 90 minutes. Here is the method: Ibiglustat, known as a GCS inhibitor, was used as a control.
After the cells attached to the culture dish were washed with phosphate buffered saline (PBS), the cells were scraped off with a cell scraper and then centrifuged (4000 rpm, 3 min, 4° C.) to collect the cells in a 50 ml tube. The cell pellets were suspended in a lysis buffer (50 mM HEPES, pH 7.3, containing 1× the protease/phosphatase inhibitor cocktail), lysed by sonication, and then the lysate was centrifuged (13000 rpm, 10 min, 4° C.). The obtained supernatant was used for the quantitative analysis of proteins. The amount of proteins was measured using the BCA protein assay kit, using bovine serum albumin as a standard.
Enzymatic reactions were initiated by sequentially adding the following reaction materials to a 96 deep-well plate. Thereafter, the enzymatic reactions were performed at 37° C. for 90 minutes.
The enzymatic reactions were stopped by adding 100 μl of chloroform/methanol (2:1, v/v). After vortexing for 15 seconds, each mixture was centrifuged (4000 rpm, 10 min, 18° C.). The lower layer (50 μl) was transferred to a new 96 deep-well plate and dried with a reduced concentrator.
Data analysis was performed by the following equations. % Area (Sample)=Area (GlcCer)/[Area (Cer)+Area (GlcCer)]×100 % GCS activity=[Area(Sample)−Area(ibiglustat)]/[Area(DMSO)−Area(ibiglustat)]×100

The test system of test [2] is GM1 production. The test is described as follows: cells. The format is cell-based.

pIC50: −log10 of the molar value. Like-named read-outs stand apart in the source and are kept apart here.

glucosylceramide synthase (GCS), sequence (Q16739 whole entry, looked up): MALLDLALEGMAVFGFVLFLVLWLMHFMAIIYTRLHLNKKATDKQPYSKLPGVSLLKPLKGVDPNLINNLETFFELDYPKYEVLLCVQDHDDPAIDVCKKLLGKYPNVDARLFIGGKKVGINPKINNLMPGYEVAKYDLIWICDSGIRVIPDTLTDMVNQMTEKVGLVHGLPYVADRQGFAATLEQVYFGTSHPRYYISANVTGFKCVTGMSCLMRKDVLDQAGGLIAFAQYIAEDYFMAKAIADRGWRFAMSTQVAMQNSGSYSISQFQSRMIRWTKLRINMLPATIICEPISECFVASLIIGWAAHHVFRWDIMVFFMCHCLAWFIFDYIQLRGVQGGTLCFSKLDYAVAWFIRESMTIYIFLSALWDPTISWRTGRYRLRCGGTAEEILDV

One may read the pIC50 as the negative decadic logarithm of the IC50, by convention in mol/L. Consider `O=C(NC1CCCc2cc(-c3ccc(F)cc3)ccc21)O[C@@H]1CN2CCC1CC2` (stereo partly drawn) [Example 1, (S)-quinuclidin-3-yl (6-(4-fluorophenyl)-1,2,3,4-tetrahydronaphthalen-1-yl)carbamate], for which the pIC50 in test [1] was 8.17; in test [2] (Homo sapiens, Jurkat, 72 h), 7.20. Consider `O=C(NC1CCCc2cc(-c3ccc(Cl)cc3)ccc21)O[C@@H]1CN2CCC1CC2` (stereo partly drawn) [Example 2, (S)-quinuclidin-3-yl (6-(4-chlorophenyl)-1,2,3,4-tetrahydronaphthalen-1-yl)carbamate], for which the pIC50 in test [1] is 8.52; in test [2] (Homo sapiens, Jurkat, 72 h) it was 7.26. Regarding `O=C(NC1CCCc2cc(-c3ccc(C(F)(F)F)cc3)ccc21)O[C@@H]1CN2CCC1CC2` (stereo partly drawn) [Example 3, (S)-quinuclidin-3-yl (6-(4-(trifluoromethyl)phenyl)-1,2,3,4-tetrahydronaphthalen-1-yl)carbamate], the pIC50 was 8.64 in test [1] and 7.23 in test [2] (Homo sapiens, Jurkat, 72 h).

Consider `O=C(NC1CCCc2cc(-c3ccc(OC(F)(F)F)cc3)ccc21)O[C@@H]1CN2CCC1CC2` (stereo partly drawn) [Example 4, (S)-quinuclidin-3-yl (6-(4-(trifluoromethoxy)phenyl)-1,2,3,4-tetrahydronaphthalen-1-yl)carbamate], for which the pIC50 in test [1] is 8.85; in test [2] (Homo sapiens, Jurkat, 72 h), 7.46. On to `O=C(NC1CCCc2cc(-c3cccc(F)c3)ccc21)O[C@@H]1CN2CCC1CC2` (stereo partly drawn) [Example 5, (S)-quinuclidin-3-yl (6-(3-fluorophenyl)-1,2,3,4-tetrahydronaphthalen-1-yl)carbamate], for which the pIC50 in test [1] is 9.00; in test [2] (Homo sapiens, Jurkat, 72 h) it was 7.57. The corresponding values for `O=C(NC1CCCc2cc(-c3cccc(Cl)c3)ccc21)O[C@@H]1CN2CCC1CC2` (stereo partly drawn) [Example 6, (S)-quinuclidin-3-yl (6-(3-chlorophenyl)-1,2,3,4-tetrahydronaphthalen-1-yl)carbamate] are 9.16 and 7.80. As to `O=C(NC1CCCc2cc(-c3cccc(C(F)(F)F)c3)ccc21)O[C@@H]1CN2CCC1CC2` (stereo partly drawn) [Example 7, (S)-quinuclidin-3-yl (6-(3-(trifluoromethyl)phenyl)-1,2,3,4-tetrahydronaphthalen-1-yl)carbamate], the pIC50 was 8.77 in test [1] and 7.87 in test [2] (Homo sapiens, Jurkat, 72 h).

On to `O=C(NC1CCCc2cc(-c3cccc(OC(F)(F)F)c3)ccc21)O[C@@H]1CN2CCC1CC2` (stereo partly drawn) [Example 8, (S)-quinuclidin-3-yl (6-(3-(trifluoromethoxy)phenyl)-1,2,3,4-tetrahydronaphthalen-1-yl)carbamate], for which the pIC50 is 8.68 in test [1] and 7.91 in test [2] (Homo sapiens, Jurkat, 72 h). The corresponding values for `O=C(NC1CCCc2cc(-c3ccccc3F)ccc21)O[C@@H]1CN2CCC1CC2` (stereo partly drawn) [Example 9, (S)-quinuclidin-3-yl (6-(2-fluorophenyl)-1,2,3,4-tetrahydronaphthalen-1-yl)carbamate] are 8.58 and 7.38. Regarding `O=C(NC1CCCc2cc(-c3ccccc3Cl)ccc21)O[C@@H]1CN2CCC1CC2` (stereo partly drawn) [Example 10, (S)-quinuclidin-3-yl (6-(2-chlorophenyl)-1,2,3,4-tetrahydronaphthalen-1-yl)carbamate], the pIC50 in test [1] is 8.59; in test [2] (Homo sapiens, Jurkat, 72 h) it was 7.42. Take `O=C(NC1CCCc2cc(-c3ccccc3C(F)(F)F)ccc21)O[C@@H]1CN2CCC1CC2` (stereo partly drawn) [Example 11, (S)-quinuclidin-3-yl (6-(2-(trifluoromethyl)phenyl)-1,2,3,4-tetrahydronaphthalen-1-yl)carbamate]: the pIC50 was 8.09 in test [1] and 7.42 in test [2] (Homo sapiens, Jurkat, 72 h). The compound `O=C(NC1CCCc2ccc(-c3cccc(C(F)(F)F)c3)cc21)O[C@@H]1CN2CCC1CC2` (stereo partly drawn) [Example 60, (S)-quinuclidin-3-yl (7-(3-(trifluoromethyl)phenyl)-1,2,3,4-tetrahydronaphthalen-1-yl)carbamate] showed a pIC50 in test [1] of 6.97. `CC1(C)CCc2cc(-c3cccc(F)c3F)ccc2C1NC(=O)O[C@@H]1CN2CCC1CC2` (stereo partly drawn) [Example 102, (S)-quinuclidin-3-yl (6-(2,3-difluorophenyl)-2,2-dimethyl-1,2,3,4-tetrahydronaphthalen-1-yl)carbamate]: the pIC50 in test [2] (read-out: IC50) is 8.84.
